Results from patent publication US11976057B2, “MrgX2 antagonists” (GlaxoSmithKline Intellectual Property Development Limited, priority 2020, dated 2024).

Molecular target: T1, human MRGPRX2 (Homo sapiens, UniProt Q96LB1)
T1 sequence (Q96LB1 1-330): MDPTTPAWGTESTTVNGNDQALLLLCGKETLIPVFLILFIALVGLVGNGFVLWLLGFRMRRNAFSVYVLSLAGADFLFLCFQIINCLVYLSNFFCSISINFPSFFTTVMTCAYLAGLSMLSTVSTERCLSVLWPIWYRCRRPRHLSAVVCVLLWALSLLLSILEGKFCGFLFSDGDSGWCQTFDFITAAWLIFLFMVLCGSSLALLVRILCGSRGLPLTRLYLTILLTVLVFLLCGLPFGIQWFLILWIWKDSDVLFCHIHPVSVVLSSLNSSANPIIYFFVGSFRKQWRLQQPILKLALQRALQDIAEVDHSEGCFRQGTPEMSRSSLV
Assay: Ca2+ mobilization assay (FLIPR TETRA): inhibition of Cortistatin-14 mediated MRGPRX2 activation

| SMILES | IC50 [nM] |
| --- | --- |
| C[C@@H](C(=O)Nc1ccc(Oc2ccc(F)c(F)c2)cn1)N1CCC(F)(F)[C@@H](c2ccc(=O)[nH]c2)C1 [Example 268, (S)-2-((S)-4,4-difluoro-3-(6-oxo-1,6-dihydropyridin-3-yl)piperidin-1-yl)-N-(5-(3,4-difluorophenoxy)pyridin-2-yl)propanamide] | ≤ 10 |
| C[C@@H](C(=O)Nc1ccc(Oc2ccc(F)cc2F)cn1)[C@H]1CCC[C@@H](c2cc[n+]([O-])cc2)C1 [Example 289, 4-((1R,3S)-3-((R)-1-((5-(2,4-difluorophenoxy)pyridin-2-yl)amino)-1-oxopropan-2-yl)cyclohexyl)pyridine 1-oxide] | ≤ 10 |
| C[C@@H](C(=O)Nc1ccc(OCC2CC2)nn1)N1CCC(F)(F)C(c2ccncc2)C1 (stereo partly drawn) [Example 224, (2S)—N-(6-(cyclopropylmethoxy)pyridazin-3-yl)-2-(4,4-difluoro-3-(pyridin-4-yl)piperidin-1-yl)propanamide] | 100 to 3160 |
| C[C@@H](C(=O)Nc1ccc2c(n1)CN(C1CC1)C2)N1CCC(F)(F)[C@@H](c2ccc(=O)[nH]c2)C1 [Example 32, (S)-N-(6-cyclopropyl-6,7-dihydro-5H-pyrrolo[3,4-b]pyridin-2-yl)-2-((S)-4,4-difluoro-3-(6-oxo-1,6-dihydropyridin-3-yl)piperidin-1-yl)propanamide] | 100 to 3160 |
| C[C@@H](C(=O)Nc1cnc(Oc2ccccc2)cn1)N1CCC(F)(F)[C@@H](c2c[nH]c(=O)c(CN)c2)C1 [Example 207, (S)-2-((S)-3-(5-(aminomethyl)-6-oxo-1,6-dihydropyridin-3-yl)-4,4-difluoropiperidin-1-yl)-N-(5-phenoxypyrazin-2-yl)propanamide] | 10 to 100 |
| C[C@@H](C(=O)Nc1ccc(OCC2CC2)cn1)N1CCC[C@@](O)(c2ccc(=O)[nH]c2)C1 (single isomer, unassigned) [Example 171] | 3160 to 31600 |
| C[C@@H](C(=O)Nc1ccc(Cc2ccccc2)cn1)N1CCC(F)(F)[C@@H](c2ccc(=O)[nH]c2)C1 [Example 7, (S)-N-(5-benzylpyridin-2-yl)-2-((S)-4,4-difluoro-3-(6-oxo-1,6-dihydropyridin-3-yl)piperidin-1-yl)propanamide] | ≤ 10 |
| C[C@@H](C(=O)Nc1ccc(Cl)cn1)N1CCC[C@@H](c2c[nH]c(=O)c(N)c2)C1 [Example 170] | 100 to 3160 |
| C[C@@H](C(=O)Nc1ccc(Oc2ccc(Cl)cn2)cn1)N1CCC(F)(F)[C@@H](c2ccc(=O)[nH]c2)C1 [Example 88, (S)-N-(5-((5-chloropyridin-2-yl)oxy)pyridin-2-yl)-2-((S)-4,4-difluoro-3-(6-oxo-1,6-dihydropyridin-3-yl)piperidin-1-yl)propanamide] | 10 to 100 |
| Cc1cc(C2CN([C@@H](C)C(=O)Nc3ccc(F)cn3)CCC2(F)F)cn(CC(F)(F)F)c1=O (stereo partly drawn) [Example 200, (2S)-2-(4,4-difluoro-3-(5-methyl-6-oxo-1-(2,2,2-trifluoroethyl)-1,6-dihydropyridin-3-yl)piperidin-1-yl)-N-(5-fluoropyridin-2-yl)propanamide] | 3160 to 31600 |
| C[C@@H]1C[C@@H](c2ccc(=O)[nH]c2)CN([C@@H](C)C(=O)Nc2ccc(Cl)cn2)C1 [Example 173] | 3160 to 31600 |
| C[C@@H](C(=O)Nc1ccc(Cl)cn1)N1CCC(F)(F)[C@@H](c2c[nH]c(=O)c(N)c2)C1 [Example 141, (S)-2-((S)-3-(5-amino-6-oxo-1,6-dihydropyridin-3-yl)-4,4-difluoropiperidin-1-yl)-N-(5-chloropyridin-2-yl)propanamide] | 100 to 3160 |
| C[C@@H](C(=O)Nc1ccc(OCc2ccccc2)cn1)N1CCC(F)(F)[C@@H](c2ccc(=O)[nH]c2)C1 [Example 22, (S)-N-(5-(benzyloxy)pyridin-2-yl)-2-((S)-4,4-difluoro-3-(6-oxo-1,6-dihydropyridin-3-yl)piperidin-1-yl)propanamide] | 100 to 3160 |
| Cc1cc([C@@H]2CCCN([C@@H](C)C(=O)Nc3ccc(Cl)cn3)C2)c[nH]c1=O (single isomer, unassigned) [Example 184] | 3160 to 31600 |
| C[C@@H](C(=O)Nc1ncc(OCC2CC2)cn1)N1CCC(F)(F)[C@@H](c2ccc(=O)[nH]c2)C1 [Example 35, (S)-N-(5-(cyclopropyl-methoxy)pyrimidin-2-yl)-2-((S)-4,4-difluoro-3-(6-oxo-1,6-dihydropyridin-3-yl)piperidin-1-yl)propanamide] | 100 to 3160 |
| C[C@@H](C(=O)Nc1ccc2cc(C3CC3)ccc2n1)N1CCC(F)(F)[C@@H](c2ccc(=O)[nH]c2)C1 [Example 25, (S)-N-(6-cyclopropylquino-lin-2-yl)-2-((S)-4,4-difluoro-3-(6-oxo-1,6-dihydropyridin-3-yl)piperidin-1-yl)propanamide] | 100 to 3160 |

| SMILES | IC50 [nM] |
| --- | --- |
| C[C@@H](C(=O)Nc1ccc(Cc2ccccc2)nn1)N1CCC(F)(F)[C@@H](c2ccc(=O)[nH]c2)C1 [Example 12, (S)-N-(6-benzylpyridazin-3-yl)-2-((S)-4,4-difluoro-3-(6-oxo-1,6-dihydropyridin-3-yl)piperidin-1-yl)propanamide] | 10 to 100 |
| C[C@@H](C(=O)Nc1ccc(Cc2ccncc2)cn1)N1CCC(F)(F)[C@@H](c2ccc(=O)[nH]c2)C1 [Example 13, (S)-2-((S)-4,4-difluoro-3-(6-oxo-1,6-dihydropyridin-3-yl)piperidin-1-yl)-N-(5-(pyridin-4-ylmethyl)pyridin-2-yl)propanamide] | 10 to 100 |
| C[C@@H](C(=O)Nc1ccc(Oc2ccc(F)cc2F)cn1)N1CCC(F)(F)C(c2c[nH]c(=O)c(C(O)C(F)(F)F)c2)C1 (stereo partly drawn) [Example 212, (2S)-2-(4,4-difluoro-3-(6-oxo-5-(2,2,2-trifluoro-1-hydroxyethyl)-1,6-dihydropyridin-3-yl)piperidin-1-yl)-N-(5-(2,4-difluorophenoxy)pyridin-2-yl)propanamide] | ≤ 10 |
| C[C@@H](C(=O)Nc1ccc(C2CC2)cn1)N1CCC(F)(F)[C@@H](c2ccc(=O)[nH]n2)C1 [Example 147] | 100 to 3160 |
| C[C@@H](C(=O)Nc1cnc(Oc2ccc(F)c(F)c2F)cn1)N1CCC(F)(F)[C@@H](c2cc[n+]([O-])cc2)C1 [Example 122, 4-((S)-4,4-difluoro-1-((S)-1-oxo-1-((5-(2,3,4-trifluorophenoxy)pyrazin-2-yl)amino)propan-2-yl)piperidin-3-yl)pyridine 1-oxide] | ≤ 10 |
| C[C@@H](C(=O)Nc1cnc(Oc2ccc(F)cc2F)cn1)N1CCC(F)(F)[C@@H](c2ccc(=O)[nH]c2)C1 [Example 85, (S)-2-((S)-4,4-difluoro-3-(6-oxo-1,6-dihydropyridin-3-yl)piperidin-1-yl)-N-(5-(2,4-difluorophenoxy)pyrazin-2-yl)propanamide] | ≤ 10 |
| C[C@@H](C(=O)Nc1ccc(OCC2CC2)cn1)N1CCC(F)(F)[C@@H](c2ccc(=O)[nH]n2)C1 [Example 145, (S)—N-(5-(cyclopropylmethoxy)pyridin-2-yl)-2-((R)-4,4-difluoro-3-(6-oxo-1,6-dihydropyridazin-3-yl)piperidin-1-yl)propanamide] | 10 to 100 |
| C[C@@H](C(=O)Nc1ccc(Oc2ncccc2F)cn1)N1CCC(F)(F)[C@@H](c2cc[n+]([O-])cc2)C1 [Example 125, 4-((S)-4,4-difluoro-1-((S)-1-((5-((3-fluoropyridin-2-yl)oxy)pyridin-2-yl)amino)-1-oxopropan-2-yl)piperidin-3-yl)pyridine 1-oxide] | 10 to 100 |
| C[C@@H](C(=O)Nc1ccc(Oc2ncc(F)cc2F)cn1)[C@H]1CCC[C@@H](c2ccc(=O)[nH]c2)C1 [Example 285, (R)-N-(5-((3,5-difluoropyridin-2-yl)oxy)pyridin-2-yl)-2-((1S,3R)-3-(6-oxo-1,6-dihydropyridin-3-yl)cyclohexyl)propanamide] | ≤ 10 |
| C[C@@H](C(=O)Nc1ccc(C(=O)OC2CCCC2)cn1)N1CCC(F)(F)[C@@H](c2ccc(=O)[nH]c2)C1 [Example 46, cyclopentyl 6-((S)-2-((S)-4,4-difluoro-3-(6-oxo-1,6-dihydropyridin-3-yl)piperidin-1-yl)propanamido) nicotinate] | 100 to 3160 |
| C[C@@H](C(=O)Nc1ccc(Oc2ccc(F)cc2F)cn1)N1CCC(F)(F)[C@@H](c2c[nH]c(=O)c(CNC3CC(F)(F)C3)c2)C1 [Example 241, (S)-2-((S)-3-(5-(((3,3-difluorocyclobutyl)amino)methyl)-6-oxo-1,6-dihydropyridin-3-yl)-4,4-difluoropiperidin-1-yl)-N-(5-(2,4-difluorophenoxy)pyridin-2-yl)propanamide] | ≤ 10 |
| C[C@@H](C(=O)Nc1ccc(F)cn1)N1CCC(F)(F)[C@@H](c2ccc(=O)[nH]c2)C1 [Example 79, (S)-2-((S)-4,4-difluoro-3-(6-oxo-1,6-dihydropyridin-3-yl)piperidin-1-yl)-N-(5-fluoropyridin-2-yl)propanamide] | 10 to 100 |
| C[C@@H](C(=O)Nc1ccc(Oc2ccc(F)cc2F)cn1)N1CCC(F)(F)[C@@H](c2c[nH]c(=O)c([C@H](N)C(F)(F)F)c2)C1 (single isomer, unassigned) [Example 235] | ≤ 10 |
| C[C@@H](C(=O)Nc1cnc(Oc2ccc(F)cc2F)cn1)[C@H]1CCC(F)(F)[C@@H](c2cc[n+]([O-])cc2)C1 [Example 295, 4-((1R,5S)-5-((R)-1-((5-(2,4-difluorophenoxy)pyrazin-2-yl)amino)-1-oxopropan-2-yl)-2,2-difluorocyclohexyl)pyridine 1-oxide] | ≤ 10 |
| C[C@@H](C(=O)Nc1ncc(OCC2CC2)cc1F)N1CCC(F)(F)[C@@H](c2ccc(=O)[nH]c2)C1 [Example 28, (S)-N-(5-(cyclopropyl-methoxy)-3-fluoropyridin-2-yl)-2-((S)-4,4-difluoro-3-(6-oxo-1,6-dihydropyridin-3-yl)piperidin-1-yl)propanamide] | 100 to 3160 |
